From US20210045385A1, “PYRIDAZINONE-SUBSTITUTED KETOXIMES AS HERBICIDES” (FMC Corporation, priority 2018, published 2021)

Tests used:
Assay type in all cases: in vivo
[1] = test system: Italian ryegrass (Lolium multiflorum); assay: Test A preemergence, visual plant response rating; conditions: for Ryegrass, Italian plant response rating: 125 g ai/ha, preemergence, 0 to 100 scale, 0 no effect, 100 complete control; for Ryegrass, Italian plant response rating (0 to 100 scale): 500 g ai/ha Preemergence, approx. 10 days
Procedure, shortened: (§1)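 Greenhouse pot test in loam–sand soil mix: compound in a surfactant-containing non-phytotoxic solvent applied preemergence (directed soil spray) or postemergence (one- to two-leaf plants, 2–10 cm). Injury scored visually after ~10 days, 0–100.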

[2] = test system: barnyardgrass (Echinochloa crus-galli); assay: Test A preemergence, visual plant response rating; conditions: for Barnyardgrass plant response rating: 125 g ai/ha, preemergence, 0 to 100 scale, 0 no effect, 100 complete control; for Barnyardgrass plant response rating (0 to 100 scale): 500 g ai/ha Preemergence, approx. 10 days
Procedure, shortened: as §1

[3] = test system: foxtail, giant (giant foxtail, Setaria faberii); assay: Test A preemergence, visual plant response rating; conditions: for Foxtail, Giant plant response rating: 125 g ai/ha, preemergence, 0 to 100 scale, 0 no effect, 100 complete control; for Foxtail, Giant plant response rating (0 to 100 scale): 500 g ai/ha Preemergence, approx. 10 days
Procedure, shortened: as §1

kochia (Kochia scoparia) [4] = assay: Test A preemergence, visual plant response rating; conditions: for Kochia plant response rating: 125 g ai/ha, preemergence, 0 to 100 scale, 0 no effect, 100 complete control; for Kochia plant response rating (0 to 100 scale): 500 g ai/ha Preemergence, approx. 10 days
Procedure, shortened: as §1

[5] = test system: pigweed (Amaranthus retroflexus); assay: Test A preemergence, visual plant response rating; conditions: for Pigweed plant response rating: 125 g ai/ha, preemergence, 0 to 100 scale, 0 no effect, 100 complete control; for Pigweed plant response rating (0 to 100 scale): 500 g ai/ha Preemergence, approx. 10 days
Procedure, shortened: as §1

[6] = test system: ragweed (common ragweed, Ambrosia elatior); assay: Test A preemergence, visual plant response rating; conditions: for Ragweed plant response rating: 125 g ai/ha, preemergence, 0 to 100 scale, 0 no effect, 100 complete control; for Ragweed plant response rating (0 to 100 scale): 500 g ai/ha Preemergence, approx. 10 days
Procedure, shortened: as §1

[7] = test system: Italian ryegrass (Lolium multiflorum); assay: Test A postemergence, visual plant response rating; conditions: for Ryegrass, Italian plant response rating (0 to 100 scale): 500 g ai/ha, postemergence, 0 is no effect, 100 is complete control; for Ryegrass, Italian plant response rating: Postemergence, 125 g ai/ha, 0 to 100 scale (0 no effect, 100 complete control)
Procedure, shortened: as §1

[8] = test system: barnyardgrass (Echinochloa crus-galli); assay: Test A postemergence, visual plant response rating; conditions: for Barnyardgrass plant response rating (0 to 100 scale): 500 g ai/ha, postemergence, 0 is no effect, 100 is complete control; for Barnyardgrass plant response rating: Postemergence, 125 g ai/ha, 0 to 100 scale (0 no effect, 100 complete control)
Procedure, shortened: as §1

[9] = test system: blackgrass (Alopecurus myosuroides); assay: Test A postemergence, visual plant response rating; conditions: for Blackgrass plant response rating (0 to 100 scale): 500 g ai/ha, postemergence, 0 is no effect, 100 is complete control; for Blackgrass plant response rating: Postemergence, 125 g ai/ha, 0 to 100 scale (0 no effect, 100 complete control)
Procedure, shortened: as §1

corn (Zea mays) = assay: Test A postemergence, visual plant response rating; conditions: for Corn plant response rating (0 to 100 scale): 500 g ai/ha, postemergence, 0 is no effect, 100 is complete control; for Corn plant response rating: Postemergence, 125 g ai/ha, 0 to 100 scale (0 no effect, 100 complete control)
Procedure, shortened: as §1

[10] = test system: foxtail, giant (giant foxtail, Setaria faberii); assay: Test A postemergence, visual plant response rating; conditions: for Foxtail, Giant plant response rating (0 to 100 scale): 500 g ai/ha, postemergence, 0 is no effect, 100 is complete control; for Foxtail, Giant plant response rating: Postemergence, 125 g ai/ha, 0 to 100 scale (0 no effect, 100 complete control)
Procedure, shortened: as §1

[11] = test system: galium (catchweed bedstraw, Galium aparine); assay: Test A postemergence, visual plant response rating; conditions: for Galium plant response rating (0 to 100 scale): 500 g ai/ha, postemergence, 0 is no effect, 100 is complete control; for Galium plant response rating: Postemergence, 125 g ai/ha, 0 to 100 scale (0 no effect, 100 complete control)
Procedure, shortened: as §1

kochia (Kochia scoparia) [12] = assay: Test A postemergence, visual plant response rating; conditions: for Kochia plant response rating (0 to 100 scale): 500 g ai/ha, postemergence, 0 is no effect, 100 is complete control; for Kochia plant response rating: Postemergence, 125 g ai/ha, 0 to 100 scale (0 no effect, 100 complete control)
Procedure, shortened: as §1

[13] = test system: pigweed (Amaranthus retroflexus); assay: Test A postemergence, visual plant response rating; conditions: for Pigweed plant response rating (0 to 100 scale): 500 g ai/ha, postemergence, 0 is no effect, 100 is complete control; for Pigweed plant response rating: Postemergence, 125 g ai/ha, 0 to 100 scale (0 no effect, 100 complete control)
Procedure, shortened: as §1

[14] = test system: ragweed (common ragweed, Ambrosia elatior); assay: Test A postemergence, visual plant response rating; conditions: for Ragweed plant response rating (0 to 100 scale): 500 g ai/ha, postemergence, 0 is no effect, 100 is complete control; for Ragweed plant response rating: Postemergence, 125 g ai/ha, 0 to 100 scale (0 no effect, 100 complete control)
Procedure, shortened: as §1

[15] = test system: wheat (Triticum aestivum); assay: Test A postemergence, visual plant response rating; conditions: for Wheat plant response rating (0 to 100 scale): 500 g ai/ha, postemergence, 0 is no effect, 100 is complete control; for Wheat plant response rating: Postemergence, 125 g ai/ha, 0 to 100 scale (0 no effect, 100 complete control)
Procedure, shortened: as §1

[16] = test system: barnyardgrass (Echinochloa crus-galli); assay: Test B flooded paddy test, visual plant response rating; conditions: 250 g ai/ha, Flood, applied to paddy water, 2-leaf stage, evaluated after 13 to 15 days
Procedure, shortened: (§2)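 Seedlings at 2 leaves; compound into paddy water (3 cm flood, maintained); 13–15 d greenhouse; visual score relative to controls.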

[17] = test system: ducksalad (Heteranhera limosa); assay: as above; conditions: 250 g ai/ha, Flood, applied to paddy water, 2-leaf stage, evaluated after 13 to 15 days
Procedure, shortened: as §2

rice (Oryza sativa) = assay: as above; conditions: 250 g ai/ha, Flood, applied to paddy water, 2-leaf stage, evaluated after 13 to 15 days
Procedure, shortened: as §2

[18] = test system: sedge, umbrella (small-flower umbrella sedge, Cyperus difformis); assay: as above; conditions: 250 g ai/ha, Flood, applied to paddy water, 2-leaf stage, evaluated after 13 to 15 days
Procedure, shortened: as §2

Row | SMILES | Ryegrass, Italian plant response rating [1] | Ryegrass, Italian plant response rating (0 to 100 scale) [1] | Barnyardgrass plant response rating [2] | Barnyardgrass plant response rating (0 to 100 scale) [2] | Foxtail, Giant plant response rating [3] | Foxtail, Giant plant response rating (0 to 100 scale) [3] | Kochia plant response rating (kochia (Kochia scoparia) [4]) | Kochia plant response rating (0 to 100 scale) (kochia (Kochia scoparia) [4]) | Pigweed plant response rating [5] | Pigweed plant response rating (0 to 100 scale) [5] | Ragweed plant response rating [6] | Ragweed plant response rating (0 to 100 scale) [6] | Ryegrass, Italian plant response rating (0 to 100 scale) [7] | Ryegrass, Italian plant response rating [7] | Barnyardgrass plant response rating (0 to 100 scale) [8] | Barnyardgrass plant response rating [8] | Blackgrass plant response rating (0 to 100 scale) [9] | Blackgrass plant response rating [9] | Corn plant response rating (0 to 100 scale) (corn (Zea mays)) | Corn plant response rating (corn (Zea mays)) | further results
1 | CO/N=C(\c1cccc(C(F)(F)F)c1)c1c(O)c(C)nn(C)c1=O [Compound 71] | 0 | 20 | 0 | 0 | 0 | 0 | 0 | 0 | 20 | 60 | 10 | 30 | 40 | 40 | 30 | 10 | 50 | 20 | 10 | 0 | Foxtail, Giant plant response rating (0 to 100 scale) [10]: 20; Foxtail, Giant plant response rating [10]: 10; Galium plant response rating (0 to 100 scale) [11]: 80; Galium plant response rating [11]: 60; Kochia plant response rating (0 to 100 scale) (kochia (Kochia scoparia) [12]): 60; Kochia plant response rating (kochia (Kochia scoparia) [12]): 50; Pigweed plant response rating (0 to 100 scale) [13]: 70; Pigweed plant response rating [13]: 60; Ragweed plant response rating (0 to 100 scale) [14]: 60; Ragweed plant response rating [14]: 20; Wheat plant response rating (0 to 100 scale) [15]: 40; Wheat plant response rating [15]: 20; Plant response rating, Barnyardgrass (0 to 100 scale, 0 is no effect, 100 is complete control) [16]: 0; Plant response rating, Ducksalad (0 to 100 scale, 0 is no effect, 100 is complete control) [17]: 0; Plant response rating, Rice (0 to 100 scale, 0 is no effect, 100 is complete control) (rice (Oryza sativa)): 10; Plant response rating, Sedge, Umbrella (0 to 100 scale, 0 is no effect, 100 is complete control) [18]: 0
2 | C#CCON=C(c1c(O)c(C)nn(C)c1=O)c1cc(Br)cc2ccccc12 [Compound 116] | 100 | 100 | 100 | 100 | 90 | 100 | 10 | 100 | 100 | 100 | 90 | 90 | 100 | 90 | 90 | 90 | 100 | 100 | 80 | 30 | Foxtail, Giant plant response rating (0 to 100 scale) [10]: 90; Foxtail, Giant plant response rating [10]: 90; Galium plant response rating (0 to 100 scale) [11]: 100; Galium plant response rating [11]: 100; Kochia plant response rating (0 to 100 scale) (kochia (Kochia scoparia) [12]): 80; Kochia plant response rating (kochia (Kochia scoparia) [12]): 60; Pigweed plant response rating (0 to 100 scale) [13]: 100; Pigweed plant response rating [13]: 90; Ragweed plant response rating (0 to 100 scale) [14]: 100; Ragweed plant response rating [14]: 100; Wheat plant response rating (0 to 100 scale) [15]: 60; Wheat plant response rating [15]: 50; Plant response rating, Barnyardgrass (0 to 100 scale, 0 is no effect, 100 is complete control) [16]: 55; Plant response rating, Ducksalad (0 to 100 scale, 0 is no effect, 100 is complete control) [17]: 60; Plant response rating, Rice (0 to 100 scale, 0 is no effect, 100 is complete control) (rice (Oryza sativa)): 5; Plant response rating, Sedge, Umbrella (0 to 100 scale, 0 is no effect, 100 is complete control) [18]: 30
3 | CON=C(c1c(O)c(C)nn(C)c1=O)c1cccc2cc(Br)ccc12 [Compound 100] | 50 | 100 | 50 | 80 | 60 | 100 | 10 | 60 | 90 | 100 | 100 | 100 | 90 | 80 | 70 | 30 | 90 | 90 | 40 | 10 | Foxtail, Giant plant response rating (0 to 100 scale) [10]: 80; Foxtail, Giant plant response rating [10]: 70; Galium plant response rating (0 to 100 scale) [11]: 90; Galium plant response rating [11]: 90; Kochia plant response rating (0 to 100 scale) (kochia (Kochia scoparia) [12]): 70; Kochia plant response rating (kochia (Kochia scoparia) [12]): 70; Pigweed plant response rating (0 to 100 scale) [13]: 90; Pigweed plant response rating [13]: 90; Ragweed plant response rating (0 to 100 scale) [14]: 100; Ragweed plant response rating [14]: 90; Wheat plant response rating (0 to 100 scale) [15]: 50; Wheat plant response rating [15]: 0; Plant response rating, Barnyardgrass (0 to 100 scale, 0 is no effect, 100 is complete control) [16]: 0; Plant response rating, Ducksalad (0 to 100 scale, 0 is no effect, 100 is complete control) [17]: 0; Plant response rating, Rice (0 to 100 scale, 0 is no effect, 100 is complete control) (rice (Oryza sativa)): 0; Plant response rating, Sedge, Umbrella (0 to 100 scale, 0 is no effect, 100 is complete control) [18]: 0
